Measurements from patent US20230167073A1 (Teijin Pharma Limited, priority 2020, published 2023).

target: T1, Human TRPC6 (Homo sapiens, UniProt Q9Y210); assay: Evaluation of TRPC6 channel inhibitory activity (1), FLIPR Calcium 5 Assay Kit, OAG stimulation (Compound Nos. 1-1293); format: cell-based; details: Human TRPC6 stably-expressing cells, OAG 30 μM, FLIPR Calcium 5 Assay Kit; read-out: Inhibitory activity (pIC50 class) (converted)
T1 construct: expressed in transfected cells
T1 sequence (Q9Y210 1-931): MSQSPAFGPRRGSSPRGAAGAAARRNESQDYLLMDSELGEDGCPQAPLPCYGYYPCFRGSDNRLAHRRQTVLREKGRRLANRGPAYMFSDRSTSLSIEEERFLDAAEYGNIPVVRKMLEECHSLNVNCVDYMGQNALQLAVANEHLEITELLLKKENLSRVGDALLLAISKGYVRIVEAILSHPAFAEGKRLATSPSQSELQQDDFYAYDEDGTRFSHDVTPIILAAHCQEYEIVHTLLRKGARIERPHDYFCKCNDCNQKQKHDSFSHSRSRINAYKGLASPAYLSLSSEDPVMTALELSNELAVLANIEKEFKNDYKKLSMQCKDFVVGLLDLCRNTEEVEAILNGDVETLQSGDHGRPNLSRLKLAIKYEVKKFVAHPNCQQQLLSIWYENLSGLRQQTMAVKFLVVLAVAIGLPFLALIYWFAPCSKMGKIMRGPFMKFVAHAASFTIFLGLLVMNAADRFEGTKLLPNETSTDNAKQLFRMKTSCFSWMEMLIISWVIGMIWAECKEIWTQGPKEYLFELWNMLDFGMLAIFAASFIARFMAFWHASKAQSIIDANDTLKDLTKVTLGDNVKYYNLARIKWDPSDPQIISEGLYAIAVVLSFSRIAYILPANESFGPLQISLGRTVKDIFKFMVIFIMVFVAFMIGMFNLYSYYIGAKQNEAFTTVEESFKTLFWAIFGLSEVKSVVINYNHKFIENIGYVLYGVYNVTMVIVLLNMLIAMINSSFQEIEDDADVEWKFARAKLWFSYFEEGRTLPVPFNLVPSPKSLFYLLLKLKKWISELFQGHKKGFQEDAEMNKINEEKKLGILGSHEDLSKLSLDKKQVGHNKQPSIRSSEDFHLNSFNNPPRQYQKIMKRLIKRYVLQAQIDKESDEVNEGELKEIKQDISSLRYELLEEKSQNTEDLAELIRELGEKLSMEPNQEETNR
Method in brief: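 Calcium influx read by FLIPR fluorescence in cells stably expressing human TRPC6, dye-loaded 30 min. Compounds preincubated 20 min, then OAG stimulation at 30 μM final. Inhibition fitted by four-parameter logistic regression to give pIC50, reported as +/++/+++ categories.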

| IC50 | SMILES |
| --- | --- |
| 10 to 1000 nM | Cc1nc(-c2cccc(F)c2)cn1Cc1cc(C#N)ccc1-c1ncc([C@H](O)CN)cn1 [compound 1162, 4-[5-[(1S)-2-amino-1-hydroxyethyl]pyrimidin-2-yl]-3-[[4-(3-fluorophenyl)-2-methylimidazol-1-yl]methyl]benzonitrile] |
| 10 to 1000 nM | Cc1nc(C2CCOCC2)cn1Cc1cc(C#N)ccc1-c1ccc(CN)cn1 [compound 1163, 4-[5-(aminomethyl)pyridin-2-yl]-3-[[2-methyl-4-(oxan-4-yl)imidazol-1-yl]methyl]benzonitrile] |
| 10 to 1000 nM | Cc1nc(C2CCOCC2)cn1Cc1cc(C#N)ccc1-c1ncc(CN)cn1 [compound 1164, 4-[5-(aminomethyl)pyrimidin-2-yl]-3-[[2-methyl-4-(oxan-4-yl)imidazol-1-yl]methyl]benzonitrile] |
| > 1000 nM | Cc1nc(C2CCOCC2)cn1Cc1cc(C#N)ccc1-c1ccc([C@H](O)CN)cn1 [compound 1165] |
| > 1000 nM | Cc1nc(C2CCOCC2)cn1Cc1cc(C#N)ccc1-c1ncc([C@H](O)CN)cn1 [compound 1166] |
| < 10 nM | N#Cc1ccc(-c2ncc(CCN)cn2)c(Cn2cc(-c3ccccc3)nn2)c1 [compound 1167, 4-[5-(2-aminoethyl)pyrimidin-2-yl]-3-[(4-phenyltriazol-1-yl)methyl]benzonitrile] |
| 10 to 1000 nM | N#Cc1ccc(-c2ncc(CN)cn2)c(Cn2cc(-c3ccccc3)nn2)c1 [compound 1168, 4-[5-(aminomethyl)pyrimidin-2-yl]-3-[(4-phenyltriazol-1-yl)methyl]benzonitrile] |
| > 1000 nM | N#Cc1ccc(-c2ncc(CCN)cn2)c(Cn2ncc(-c3ccccc3)n2)c1 [compound 1169, 4-[5-(2-aminoethyl)pyrimidin-2-yl]-3-[(4-phenyltriazol-2-yl)methyl]benzonitrile] |
| > 1000 nM | N#Cc1ccc(-c2ncc(CN)cn2)c(Cn2ncc(-c3ccccc3)n2)c1 [compound 1170, 4-[5-(aminomethyl)pyrimidin-2-yl]-3-[(4-phenyltriazol-2-yl)methyl]benzonitrile] |
| 10 to 1000 nM | Cc1nc(C(C)C)cn1Cc1cc(C#N)ccc1-c1ncc(CCN)cn1 [compound 1171, 4-[5-(2-aminoethyl)pyrimidin-2-yl]-3-[(2-methyl-4-propan-2-ylimidazol-1-yl)methyl]benzonitrile] |
| 10 to 1000 nM | Cc1nc(C(C)C)cn1Cc1cc(C#N)ccc1-c1ncc(CN)cn1 [compound 1172, 4-[5-(aminomethyl)pyrimidin-2-yl]-3-[(2-methyl-4-propan-2-ylimidazol-1-yl)methyl]benzonitrile] |
| < 10 nM | Cc1nc(C(F)(F)F)cn1Cc1cc(C#N)ccc1-c1ncc(CCN)cn1 [compound 1173, 4-[5-(2-aminoethyl)pyrimidin-2-yl]-3-[[2-methyl-4-(trifluoromethyl)imidazol-1-yl]methyl]benzonitrile] |
| 10 to 1000 nM | Cc1nc(C(F)(F)F)cn1Cc1cc(C#N)ccc1-c1ncc(CN)cn1 [compound 1174, 4-[5-(aminomethyl)pyrimidin-2-yl]-3-[[2-methyl-4-(trifluoromethyl)imidazol-1-yl]methyl]benzonitrile] |
| > 1000 nM | Cc1nc(CN2CCCC2)cn1Cc1cc(C#N)ccc1-c1ncc(CCN)cn1 [compound 1175, 4-[5-(2-aminoethyl)pyrimidin-2-yl]-3-[[2-methyl-4-(pyrrolidin-1-ylmethyl)imidazol-1-yl]methyl]benzonitrile] |
| 10 to 1000 nM | Cc1nc(C(F)F)cn1Cc1cc(C#N)ccc1-c1ncc(CCN)cn1 [compound 1176, 4-[5-(2-aminoethyl)pyrimidin-2-yl]-3-[[4-(difluoromethyl)-2-methylimidazol-1-yl]methyl]benzonitrile] |
| > 1000 nM | Cc1nc(CN2CCC(F)CC2)cn1Cc1cc(C#N)ccc1-c1ncc(CCN)cn1 [compound 1177, 4-[5-(2-aminoethyl)pyrimidin-2-yl]-3-[[4-[(4-fluoropiperidin-1-yl)methyl]-2-methylimidazol-1-yl]methyl]benzonitrile] |
| > 1000 nM | Cc1nc(CN(C)C)cn1Cc1cc(C#N)ccc1-c1ncc(CCN)cn1 [compound 1178, 4-[5-(2-aminoethyl)pyrimidin-2-yl]-3-[[4-[(dimethylamino)methyl]-2-methylimidazol-1-yl]methyl]benzonitrile] |

| IC50 | SMILES |
| --- | --- |
| > 1000 nM | Cc1nc(CN2CCC(C(F)(F)F)CC2)cn1Cc1cc(C#N)ccc1-c1ncc(CCN)cn1 [compound 1180, 4-[5-(2-aminoethyl)pyrimidin-2-yl]-3-[[2-methyl-4-[[4-(trifluoromethyl)piperidin-1-yl]methyl]imidazol-1-yl]methyl]benzonitrile] |
| > 1000 nM | Cc1nc(CNC(C)C)cn1Cc1cc(C#N)ccc1-c1ncc(CCN)cn1 [compound 1181, 4-[5-(2-aminoethyl)pyrimidin-2-yl]-3-[[2-methyl-4-[(propan-2-ylamino)methyl]imidazol-1-yl]methyl]benzonitrile] |
| > 1000 nM | N#Cc1ccc(-c2ncc(CCN)cn2)c(Cn2ccnc2-c2ccccc2)c1 [compound 1182, 4-[5-(2-aminoethyl)pyrimidin-2-yl]-3-[(2-phenylimidazol-1-yl)methyl]benzonitrile] |
| > 1000 nM | N#Cc1ccc(-c2ncc(CN)cn2)c(Cn2ccnc2-c2ccccc2)c1 [compound 1183] |
| < 10 nM | CC(C)Cc1cn(Cc2cc(C#N)ccc2-c2ncc(CCN)cn2)nn1 [compound 1184, 4-[5-(2-aminoethyl)pyrimidin-2-yl]-3-[[4-(2-methylpropyl)triazol-1-yl]methyl]benzonitrile] |
| < 10 nM | CC(C)c1cn(Cc2cc(C#N)ccc2-c2ncc(CCN)cn2)nn1 [compound 1185, 4-[5-(2-aminoethyl)pyrimidin-2-yl]-3-[(4-propan-2-yltriazol-1-yl)methyl]benzonitrile] |
| < 10 nM | N#Cc1ccc(-c2ncc(CCN)cn2)c(Cn2cc(C3CCCCC3)nn2)c1 [compound 1186, 4-[5-(2-aminoethyl)pyrimidin-2-yl]-3-[(4-cyclohexyltriazol-1-yl)methyl]benzonitrile] |
| 10 to 1000 nM | CC(C)Cc1cn(Cc2cc(C#N)ccc2-c2ncc(CN)cn2)nn1 [compound 1188, 4-[5-(aminomethyl)pyrimidin-2-yl]-3-[[4-(2-methylpropyl)triazol-1-yl]methyl]benzonitrile] |
| 10 to 1000 nM | CC(C)c1cn(Cc2cc(C#N)ccc2-c2ncc(CN)cn2)nn1 [compound 1189, 4-[5-(aminomethyl)pyrimidin-2-yl]-3-[(4-propan-2-yltriazol-1-yl)methyl]benzonitrile] |
| 10 to 1000 nM | N#Cc1ccc(-c2ncc(CN)cn2)c(Cn2cc(C3CCCCC3)nn2)c1 [compound 1190, 4-[5-(aminomethyl)pyrimidin-2-yl]-3-[(4-cyclohexyltriazol-1-yl)methyl]benzonitrile] |
| 10 to 1000 nM | N#Cc1ccc(-c2ncc(CN)cn2)c(Cn2cc(C3CC3)nn2)c1 [compound 1191, 4-[5-(aminomethyl)pyrimidin-2-yl]-3-[(4-cyclopropyltriazol-1-yl)methyl]benzonitrile] |
| > 1000 nM | Cc1nc(-c2cncc(F)c2)cn1Cc1cc(C#N)ccc1-c1ncc(CN)cn1 [compound 1192, 4-[5-(aminomethyl)pyrimidin-2-yl]-3-[[4-(5-fluoropyridin-3-yl)-2-methylimidazol-1-yl]methyl]benzonitrile] |
| 10 to 1000 nM | Cc1nc(-c2cncc(F)c2)cn1Cc1cc(C#N)ccc1-c1ccc(CCN)cn1 [compound 1193, 4-[5-(2-aminoethyl)pyridin-2-yl]-3-[[4-(5-fluoropyridin-3-yl)-2-methylimidazol-1-yl]methyl]benzonitrile] |
| > 1000 nM | Cc1nc(-c2cncc(F)c2)cn1Cc1cc(C#N)ccc1-c1ncc(CCN)cn1 [compound 1194, 4-[5-(2-aminoethyl)pyrimidin-2-yl]-3-[[4-(5-fluoropyridin-3-yl)-2-methylimidazol-1-yl]methyl]benzonitrile] |
| 10 to 1000 nM | CC(C)Cn1cc(Cc2cc(C#N)ccc2-c2ncc(CN)cn2)cn1 [compound 1196, 4-[5-(aminomethyl)pyrimidin-2-yl]-3-[[1-(2-methylpropyl)pyrazol-4-yl]methyl]benzonitrile] |
| 10 to 1000 nM | N#Cc1ccc(-c2ncc(CCN)cn2)c(Cc2cnn(-c3ccccn3)c2)c1 [compound 1197, 4-[5-(2-aminoethyl)pyrimidin-2-yl]-3-[(1-pyridin-2-ylpyrazol-4-yl)methyl]benzonitrile] |
| < 10 nM | Cc1nn(CC(C)C)cc1Cc1cc(C#N)ccc1-c1ncc(CCN)cn1 [compound 1199, 4-[5-(2-aminoethyl)pyrimidin-2-yl]-3-[[3-methyl-1-(2-methylpropyl)pyrazol-4-yl]methyl]benzonitrile] |
